Patent publication US10696615B2, “Prenylated hydroxystilbenes” (The University of Sydney, priority 2011, dated 2020)

Columns and labels:
Format in all cases: cell-based, human
MDA-MB-468 = assay: NCI in vitro cancer screen, Breast Cancer; details: MDA-MB-468
OVCAR-8 = assay: NCI in vitro cancer screen, Ovarian Cancer; details: OVCAR-8
OVCAR-3 = assay: NCI in vitro cancer screen, Ovarian Cancer; details: Homo sapiens, OVCAR-3
IGROV1 = assay: NCI in vitro cancer screen, Ovarian Cancer; details: IGROV1
SNB-19 = assay: NCI in vitro cancer screen, CNS Cancer; details: SNB-19
HS 578T = assay: NCI in vitro cancer screen, Breast Cancer; details: Homo sapiens
K-562 = assay: NCI in vitro cancer screen, Leukemia; details: K-562
RXF-393 = assay: NCI in vitro cancer screen, Renal Cancer; details: Homo sapiens, RXF-393
SF-295 = assay: NCI in vitro cancer screen, CNS Cancer; details: SF-295
[1] = system: MDA-MB-231 (MDA-MB-231/ATCC); assay: NCI in vitro cancer screen, Breast Cancer; details: MDA-MB-231
UACC-257 = assay: NCI in vitro cancer screen, Melanoma; details: UACC-257
M14 = assay: NCI in vitro cancer screen, Melanoma; details: M14
SR = assay: NCI in vitro cancer screen, Leukemia
A549/ATCC = assay: NCI in vitro cancer screen, Non-Small Cell Lung Cancer
SNB-75 = assay: NCI in vitro cancer screen, CNS Cancer; details: SNB-75
SK-MEL-5 = assay: NCI in vitro cancer screen, Melanoma; details: SK-MEL-5
HCT-116 = assay: NCI in vitro cancer screen, Colon Cancer; details: HCT-116
NCI-H226 = assay: NCI in vitro cancer screen, Non-Small Cell Lung Cancer; details: NCI-H226
786-0 = assay: NCI in vitro cancer screen, Renal Cancer; details: 786-0
SK-MEL-28 = assay: NCI in vitro cancer screen, Melanoma; details: SK-MEL-28
CCRF-CEM = assay: NCI in vitro cancer screen, Leukemia
ACHN = assay: NCI in vitro cancer screen, Renal Cancer
HCC-2998 = assay: NCI in vitro cancer screen, Colon Cancer; details: HCC-2998
NCI-H522 = assay: NCI in vitro cancer screen, Non-Small Cell Lung Cancer; details: Homo sapiens, NCI-H522
MCF7 = assay: NCI in vitro cancer screen, Breast Cancer; details: MCF7
MDA-MB-435 = assay: NCI in vitro cancer screen, Melanoma; details: MDA-MB-435
SK-OV-3 = assay: NCI in vitro cancer screen, Ovarian Cancer; details: SK-OV-3
NCI-H322M = assay: NCI in vitro cancer screen, Non-Small Cell Lung Cancer
DU-145 = assay: NCI in vitro cancer screen, Prostate Cancer; details: DU-145
EKVX = assay: NCI in vitro cancer screen, Non-Small Cell Lung Cancer
SW-620 = assay: NCI in vitro cancer screen, Colon Cancer; details: SW-620
[2] = Homo sapiens, read-out: LC50 (the source's name)
[3] = read-out: LC50 (the source's name)

COc1cc(/C=C/c2cc(O)cc(OC)c2CC=C(C)C)ccc1O [USYDS1, (E)-2-(3-methyl-2-buten-1-yl)-4′,5-dihydroxy-3,3′-dimethoxystilbene]
GI50 (MDA-MB-468; Homo sapiens): 0.36 µM | CC50 (MDA-MB-468; [2]): 33.2 µM | TGI (MDA-MB-468): 8.37 µM | GI50 (OVCAR-8; Homo sapiens): 0.08 µM | CC50 (OVCAR-8; [2]): 50 µM | TGI (OVCAR-8): 11.7 µM | GI50 (OVCAR-3): 0.26 µM | CC50 (OVCAR-3; [3]): 37.3 µM | GI50 (IGROV1; Homo sapiens, IGROV-1): 2.65 µM | CC50 (IGROV1; Homo sapiens, IGROV-1, read-out: LC50 (the source's name)): > 100 µM | TGI (IGROV1): 27.9 µM | GI50 (SNB-19; Homo sapiens): 0.17 µM | CC50 (SNB-19; [2]): 51.5 µM | TGI (SNB-19): 19.3 µM | GI50 (HS 578T): 0.02 µM | CC50 (HS 578T; [3]): > 100 µM | GI50 (K-562; Homo sapiens, K562): 0.04 µM | CC50 (K-562; Homo sapiens, K562, read-out: LC50 (the source's name)): > 100 µM | TGI (K-562): 11.7 µM | GI50 (RXF-393): 0.03 µM | CC50 (RXF-393; [3]): 39.1 µM | GI50 (SF-295; Homo sapiens): 0.65 µM | CC50 (SF-295; [2]): 55.7 µM | TGI (SF-295): 16.2 µM | GI50 ([1]; Homo sapiens): 0.15 µM | CC50 [1, 2]: 61.2 µM | TGI [1]: 2.43 µM | GI50 (UACC-257; Homo sapiens): 2.53 µM | CC50 (UACC-257; [2]): 45.4 µM | TGI (UACC-257): 17.7 µM | GI50 (M14; Homo sapiens): 0.04 µM | CC50 (M14; [2]): 44 µM | TGI (M14): 13.9 µM | TGI (SR): 24.4 µM | GI50 (SR; Homo sapiens): 0.04 µM | CC50 (SR; [2]): > 100 µM | TGI (A549/ATCC): 11.3 µM | GI50 (A549/ATCC; Homo sapiens): 0.5 µM | CC50 (A549/ATCC; [2]): 40.3 µM | GI50 (SNB-75; Homo sapiens): 0.03 µM | CC50 (SNB-75; [2]): 72 µM | TGI (SNB-75): 20.2 µM | GI50 (SK-MEL-5; Homo sapiens): 0.05 µM | CC50 (SK-MEL-5; [2]): 5.99 µM | TGI (SK-MEL-5): 0.75 µM | TGI (HCT-116): 11.1 µM | GI50 (HCT-116; Homo sapiens): 0.3 µM | LC50 (concentration killing 50% of cells) (HCT-116; Homo sapiens): 40.4 µM | GI50 (NCI-H226; Homo sapiens): 3.13 µM | LC50 (50% lethal concentration) (NCI-H226; Homo sapiens): 45.6 µM | TGI (NCI-H226): 13.3 µM | TGI (786-0): 14.0 µM | GI50 (786-0; Homo sapiens): 0.48 µM | LC50 (50% net cell kill) (786-0; Homo sapiens): > 100 µM | GI50 (SK-MEL-28; Homo sapiens): 10.9 µM | LC50 (SK-MEL-28; Homo sapiens): 51.7 µM | TGI (SK-MEL-28): 23.8 µM | TGI (CCRF-CEM): 24.6 µM | GI50 (CCRF-CEM; Homo sapiens): 0.35 µM | CC50 (CCRF-CEM; [2]): > 100 µM | TGI (ACHN): 14.0 µM | GI50 (ACHN; Homo sapiens): 0.07 µM | CC50 (ACHN; [2]): 44.6 µM | TGI (HCC-2998): 11.5 µM | GI50 (HCC-2998; Homo sapiens): 1.07 µM | CC50 (HCC-2998; [2]): 35.8 µM | GI50 (NCI-H522): 0.02 µM | CC50 (NCI-H522; [3]): 44.8 µM | GI50 (MCF7; Homo sapiens): 0.23 µM | CC50 (MCF7; [2]): 52.9 µM | TGI (MCF7): 13.0 µM | GI50 (MDA-MB-435; Homo sapiens): 0.03 µM | CC50 (MDA-MB-435; [2]): 43 µM | TGI (MDA-MB-435): 13.8 µM | GI50 (SK-OV-3; Homo sapiens): 0.19 µM | CC50 (SK-OV-3; [2]): 34.7 µM | TGI (SK-OV-3): 11.6 µM | TGI (NCI-H322M): 25.7 µM | GI50 (NCI-H322M; Homo sapiens): 11.8 µM | LC50 (50% lethal concentration) (NCI-H322M; Homo sapiens): 55.9 µM | TGI (DU-145): 12.7 µM | GI50 (DU-145; Homo sapiens): 0.06 µM | CC50 (DU-145; [2]): 38.6 µM | TGI (EKVX): 24.3 µM | GI50 (EKVX; Homo sapiens): 10.8 µM | CC50 (EKVX; [2]): 54.4 µM | GI50 (SW-620; Homo sapiens): 0.04 µM | CC50 (SW-620; [2]): 44.3 µM | TGI (SW-620): 15.1 µM
